Patent US8962573B2 (INSERM (Institut National de la Sante et de la Recherche …, priority 2009, dated 2015)
“And” between values parts separate entries of the source, which are not always exact repeats. Equal entries are not always repeated. “Also recorded” adds a separate entry of the source. Where two headings read alike, the source gives them in different places.

How the values were obtained:
CI-M6PR [1] = assay: Binding assay to biotinylated CI-M6PR (displacement from adsorbed pentamannose 6-phosphate); conditions: for binding affinity to CI-M6PR (in words) / stability of affinity in buffer solution: 20° C.
Description: The binding assays of the M6 Pa were performed using biotinylated CI-M6PR. Briefly, the CI-M6PR, purified on a phosphomannan-sepharose affinity column was biotinylated by N-hydroxysuccinimide biotin. The binding of the biotinylated CI-M6PR(CI-M6PRb) to pentamannose 6-phosphate (PMP) previously adsorbed on a microtitre plate was displaced by increasing concentrations of M6 Pa. The bound CI-M6PRb was then determined using the streptavidin/peroxidase couple and OPD substrate by optical density measurements. In control experiments the method was standardized by determining of the maximal concentration of the PMP adsorbed to the microtitre plate and the CI-M6PRb concentration required to saturate the adsorbed PMP [Jeanjean A et al., Bioorg Med Chem 14: 3575-82, 2006].
The binding assays of the cathD-AMFA-1 were performed using biotinylated CI-M6PR to the same protocol used for AMFA-1 binding assay, as detailed in section 1.2.

[2] = assay type: in vitro ADME
Description: (§1) Previous results have shown that a complex cathepsin D/anti-cathepsin D antibody was specifically internalised by CI-M6PR in normal human fibroblasts [Laurent-Matha V et al., J Cell Sci. 111: 2539-49, 1998]. The complex was here detected by immunofluorescence staining.
The binding affinity of AMFA-1, AMFA-2, AMFA-3 and AMFA-5 to CI-M6PR was determined at 20° C. (A) or in the presence of 75% human serum at 37° C. […] Methods are identical to 1.8 section.

FIG.15 = assay: FIG.15
Description: Table printed on a drawing sheet, FIG.15
(A) and in human serum (B).
First reader's note: Stability (%) matches the CI-M6PR binding affinity remaining at the last time point of incubation in human serum in the plot printed below the table.

CI-M6PR [3] = molecular target: T1, CI-M6PR (Homo sapiens, UniProt P11717); assay: Endocytosis of cathepsin D/anti-cathepsin D antibody complex via CI-M6PR in normal human fibroblasts (immunofluorescence); assay type: cell-based; conditions: cells pre-incubated with 10 mM; control cells 80%
T1 construct: endogenous in cells; host or cells: normal human fibroblasts
From the text: as §1

CI-M6PR [4] = molecular target: T1, CI-M6PR; assay type: cell-based; conditions: pre-incubation with 10 mM
Description: (§2) As observed at light microscopy, 100 ng/mL neoIDUA was already internalised by MPSI fibroblasts from Scheie patient after 3 h incubation (FIG. 17 B-E). […] Glyceraldehyde 3-phosphate dehydrogenase (GAPDH) immunodetection was used as an internal control for total protein loading.

[5] = test system: human normal fibroblast IMR-90 cell line; assay: Cytotoxicity on human normal fibroblast cell line; assay type: cell-based; conditions: FIG. 14C
MCF7 = assay: Cytotoxicity on breast cancer cell line MCF7; assay type: cell-based, human; conditions: data not shown
MDA-MB-231 = assay: Cytotoxicity on breast cancer cell line MDA-MB-231; assay type: cell-based, human; conditions: data not shown
[6] = test system: MPSI fibroblasts from Scheie patient; assay: neoIDUA cell internalisation in MPSI fibroblasts; assay type: cell-based, human
Description: as §2

[7] = test system: Hurler patient fibroblasts; assay: Secreted GAG in culture medium of Hurler patient fibroblasts (Blyscan kit); assay type: cell-based, human
Hurler fibroblasts = assay: Viability of Hurler fibroblasts (MTT assay); assay type: cell-based, human; conditions: 100-500 ng/mL
Description: Cell viability was evaluated by MTT assay [Maynadier et al. FASEB J, 22: 671-81, 2008].

Homozygous IDUA −/− mice = assay: Therapeutic efficacy in mucopolysaccharidosis I (MPSI) mouse model, urinary GAG; assay type: in vivo; conditions: 0.16 mg/kg body weight/week intravenously, 6 weeks; Mean ± SD
Description: Homozygous IDUA −/− mice (6-8 week-old) were treated intravenously with vehicle alone (control) or with 0.16 mg neoIDUA/kg body weight/week for 6 weeks. The secreted GAG were assayed in urine after 6 injections and normalized to urine creatinine concentrations using methods previously described [Barbosa et al., Glycobiology Adv. Access 13: 647-53, 2003].

T1 sequence (P11717 41-2491): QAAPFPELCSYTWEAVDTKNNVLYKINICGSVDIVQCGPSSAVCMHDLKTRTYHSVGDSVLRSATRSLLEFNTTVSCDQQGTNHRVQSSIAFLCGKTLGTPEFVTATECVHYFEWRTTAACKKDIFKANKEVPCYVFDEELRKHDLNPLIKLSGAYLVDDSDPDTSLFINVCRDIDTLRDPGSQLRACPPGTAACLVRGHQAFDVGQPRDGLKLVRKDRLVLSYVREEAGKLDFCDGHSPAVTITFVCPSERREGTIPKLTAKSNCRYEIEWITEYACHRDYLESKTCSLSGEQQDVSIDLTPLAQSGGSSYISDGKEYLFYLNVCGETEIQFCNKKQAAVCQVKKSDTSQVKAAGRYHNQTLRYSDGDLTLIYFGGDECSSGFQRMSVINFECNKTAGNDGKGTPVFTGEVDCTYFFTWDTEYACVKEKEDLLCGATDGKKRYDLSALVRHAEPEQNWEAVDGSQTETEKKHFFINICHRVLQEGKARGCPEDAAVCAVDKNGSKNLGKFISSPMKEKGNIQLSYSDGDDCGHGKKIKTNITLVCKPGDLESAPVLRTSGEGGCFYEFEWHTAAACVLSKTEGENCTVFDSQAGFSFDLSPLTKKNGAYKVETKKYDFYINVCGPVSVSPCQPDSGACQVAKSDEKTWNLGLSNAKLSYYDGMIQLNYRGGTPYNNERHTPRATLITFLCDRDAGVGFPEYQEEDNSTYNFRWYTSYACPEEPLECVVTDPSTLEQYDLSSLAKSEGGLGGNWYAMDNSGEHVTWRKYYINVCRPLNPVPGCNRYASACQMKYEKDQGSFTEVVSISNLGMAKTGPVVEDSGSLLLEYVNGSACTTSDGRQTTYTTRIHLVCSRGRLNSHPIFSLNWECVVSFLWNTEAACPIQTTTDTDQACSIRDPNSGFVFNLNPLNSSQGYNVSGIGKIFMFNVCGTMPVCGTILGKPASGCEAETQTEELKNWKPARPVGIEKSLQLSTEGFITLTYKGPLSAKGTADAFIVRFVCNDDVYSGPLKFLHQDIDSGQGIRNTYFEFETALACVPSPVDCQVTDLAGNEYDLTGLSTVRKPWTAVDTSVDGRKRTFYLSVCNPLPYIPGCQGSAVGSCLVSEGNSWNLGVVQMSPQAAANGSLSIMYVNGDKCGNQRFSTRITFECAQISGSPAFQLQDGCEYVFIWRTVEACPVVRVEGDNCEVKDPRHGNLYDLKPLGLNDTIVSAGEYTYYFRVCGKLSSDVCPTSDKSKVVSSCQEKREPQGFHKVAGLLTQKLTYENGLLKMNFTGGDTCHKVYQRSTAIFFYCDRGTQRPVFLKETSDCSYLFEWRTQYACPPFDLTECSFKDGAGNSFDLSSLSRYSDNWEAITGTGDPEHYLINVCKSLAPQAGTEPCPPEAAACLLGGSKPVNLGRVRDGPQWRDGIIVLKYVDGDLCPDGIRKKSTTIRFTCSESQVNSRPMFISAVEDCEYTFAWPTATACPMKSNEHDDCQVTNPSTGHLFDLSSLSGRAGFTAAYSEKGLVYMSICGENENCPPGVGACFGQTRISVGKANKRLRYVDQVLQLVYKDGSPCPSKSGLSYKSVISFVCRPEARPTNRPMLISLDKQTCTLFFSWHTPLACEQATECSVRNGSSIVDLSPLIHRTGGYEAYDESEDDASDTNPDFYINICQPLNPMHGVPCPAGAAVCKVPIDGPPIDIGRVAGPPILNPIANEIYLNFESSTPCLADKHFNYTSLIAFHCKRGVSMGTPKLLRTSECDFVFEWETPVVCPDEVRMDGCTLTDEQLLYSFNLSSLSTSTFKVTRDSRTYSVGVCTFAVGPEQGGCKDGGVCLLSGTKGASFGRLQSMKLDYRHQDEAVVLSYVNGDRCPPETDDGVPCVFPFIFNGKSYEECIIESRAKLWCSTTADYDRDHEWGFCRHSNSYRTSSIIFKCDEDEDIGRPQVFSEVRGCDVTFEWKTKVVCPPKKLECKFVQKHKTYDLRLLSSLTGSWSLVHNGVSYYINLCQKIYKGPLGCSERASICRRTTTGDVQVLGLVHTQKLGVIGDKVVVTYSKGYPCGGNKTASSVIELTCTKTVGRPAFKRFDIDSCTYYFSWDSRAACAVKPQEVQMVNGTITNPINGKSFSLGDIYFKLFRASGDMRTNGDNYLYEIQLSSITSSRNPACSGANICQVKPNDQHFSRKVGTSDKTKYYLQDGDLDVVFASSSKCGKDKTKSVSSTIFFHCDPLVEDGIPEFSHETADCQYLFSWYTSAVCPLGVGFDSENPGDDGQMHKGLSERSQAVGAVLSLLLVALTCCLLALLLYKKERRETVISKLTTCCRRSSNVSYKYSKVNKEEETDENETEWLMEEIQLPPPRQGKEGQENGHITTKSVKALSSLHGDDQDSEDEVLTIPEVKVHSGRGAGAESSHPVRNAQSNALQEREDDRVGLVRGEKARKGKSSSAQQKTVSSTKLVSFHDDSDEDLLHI

natural cathepsin D: human lysosomal enzyme, high affinity ligand for CI-M6PR with bisphosphorylated chains
Kd (CI-M6PR [1]; FIG. 16A, read-out: affinity for CI-M6PR (Kd)): 15 nM

NNC(=O)CCn1cc(CO[C@H]2O[C@H](CCP(=O)(O)O)[C@@H](O)[C@H](O)[C@@H]2O)nn1.[Na].[Na] [AMFA-2, Disodium salt of (Hydrazinocarbonylethyl)-1H-1,2,3-triazol-4-yl-methyl 6-Deoxy-6-dihydroxyphosphinylmethylene-α-D-mannopyranoside]
binding affinity to CI-M6PR (in words) (CI-M6PR [1]): high binding affinity | stability in human serum (in words) [2]: stable | Stability (%) (FIG.15): 90%

NOCCO[C@H]1O[C@H](CCP(=O)(O)O)[C@@H](O)[C@H](O)[C@@H]1O.[Na].[Na] [AMFA-3, Disodium salt of 2-(aminoxy)ethyl 6-deoxy-6-dihydroxyphosphinylmethylene-α-D-mannopyranoside]
binding affinity to CI-M6PR (in words) (CI-M6PR [1]): high binding affinity | stability in human serum (in words) [2]: stable | Stability (%) (FIG.15): 91%

5-hydrazinocarbonylpentyl 6-phosphate-α-D-mannopyranoside disodium salt [M6P-hexanehydrazide, reference compound]
stability of affinity in buffer solution (CI-M6PR [1]): stable affinity | decrease of affinity in human serum ([2]; 75% human serum at 37° C., after 7-8 h): ~50% | decrease of affinity in human serum ([2]; 75% human serum at 37° C., after 16 h): 84%

O=C[C@@H](O)[C@@H](O)[C@H](O)[C@H](O)COP(=O)(O)O [M6P, mannose 6-phosphate, reference compound]
stability of affinity in buffer solution (CI-M6PR [1]): stable affinity | decrease of affinity in human serum ([2]; human): ~50% | decrease of affinity in human serum ([2]; human, 16 h): 100% | cells that internalized the cathepsin D/anti-cathepsin D antibody complex (CI-M6PR [3]): 30% | effect on uptake of neoIDUA by the cells (CI-M6PR [4]): strongly decreased

COC(=O)CCCCCO[C@H]1O[C@H](CC(C(=O)[O-])C(=O)[O-])[C@@H](O)[C@H](O)[C@@H]1O.[Na+].[Na+] [AMFA-5, [5-methoxycarbonylpentyl 6,7-dideoxy-7-(carboxy)-α-D-manno-octopyranoside]uronate disodium salt]
binding affinity to CI-M6PR (in words) (CI-M6PR [1]): high binding affinity | stability in human serum (in words) [2]: stable | Stability (%) (FIG.15): 90%

NNC(=O)CCCCCO[C@H]1O[C@H](CCP(=O)(O)O)[C@@H](O)[C@H](O)[C@@H]1O.[Na].[Na] [AMFA-1, 5-hydrazinocarbonylpentyl 6-deoxy-6-dihydroxyphosphinylmethyl-α-D-mannopyranoside disodium salt]
binding affinity to CI-M6PR (in words) (CI-M6PR [1]): high binding affinity | binding affinity for CI-M6PR (comparison in words) (CI-M6PR [1]; FIG. 1, FIG. 14): identical to those of phosphonate 1 alone | stability in human serum (in words) ([2]; 75% (v/v) human serum, disodium salt): identical to those of phosphonate 1 alone; also recorded: stable | toxicity in human fibroblasts [5]: absence of toxicity | toxicity in human breast cancer cell line MCF7 (MCF7): no toxicity | toxicity in human breast cancer cell line MDA (MDA-MB-231): no toxicity | effect on uptake of neoIDUA by the cells (CI-M6PR [4]): totally prevented

5-hydrazinocarbonylpentyl 6-phosphate-α-D-mannopyranoside disodium salt [M6P-hexanehydrazide]
Stability (%) (FIG.15): 16%

O=C[C@@H](O)[C@@H](O)[C@H](O)[C@H](O)COP(=O)(O)O [M6P, mannose 6-phosphate]
Stability (%) (FIG.15): 0%

B1: IDUA-AMFA-1: recombinant α-L-iduronidase from baculovirus/Sf9 cells coupled to AMFA-1 (conjugate, UniProt P35475 28-653, looked up)
Alpha-L-iduronidase: APHLVHVDAARALWPLRRFWRSTGFCPPLPHSQADQYVLSWDQQLNLAYVGAVPHRGIKQVRTHWLLELVTTRGSTGRGLSYNFTHLDGYLDLLRENQLLPGFELMGSASGHFTDFEDKQQVFEWKDLVSSLARRYIGRYGLAHVSKWNFETWNEPDHHDFDNVSMTMQGFLNYYDACSEGLRAASPALRLGGPGDSFHTPPRSPLSWGLLRHCHDGTNFFTGEAGVRLDYISLHRKGARSSISILEQEKVVAQQIRQLFPKFADTPIYNDEADPLVGWSLPQPWRADVTYAAMVVKVIAQHQNLLLANTTSAFPYALLSNDNAFLSYHPHPFAQRTLTARFQVNNTRPPHVQLLRKPVLTAMGLLALLDEEQLWAEVSQAGTVLDSNHTVGVLASAHRPQGPADAWRAAVLIYASDDTRAHPNRSVAVTLRLRGVPPGPGLVYVTRYLDNGLCSPDGEWRRLGRPVFPTAEQFRRMRAAEDPVAAAPRPLPAGGRLTLRPALRLPSLLLVHVCARPEKPPGQVTRLRALPLTQGQLVLVWSDEHVGSKCLWTYEIQFSQDGKAYTPVSRKPSTFNLFVFSPDTGAVSGSYRVRALDYWARPGPFSDPVPYLEVPVPRGPPSPGNP
modifications: coupled to AMFA-1
internalisation by MPSI fibroblasts (light microscopy) ([6]; 100 ng/mL, 3 h incubation, Scheie patient): internalised | internalization in cell extracts (Western Blot) ([6]; after 24 h incubation): demonstrated | Secreted GAG concentrations in culture medium ([7]; 24 h treatment, control 0.018): 0.009 µg/mL | Secreted GAG concentrations in culture medium ([7]; 48 h treatment, control 0.022): 0.016 µg/mL | Secreted GAG concentrations in culture medium ([7]; 72 h treatment, control 0.032): 0.018 µg/mL | reduction of GAG secretion ([7]; from 24 to 72 h): up to 50% | toxicity on Hurler fibroblasts (Hurler fibroblasts): not toxic | cell viability (Hurler fibroblasts; 72 h): slightly potentiate cell viability | Secreted GAG concentrations/creatinine concentrations in urine (Homozygous IDUA −/− mice): 59.8 % control and 59.8 ± 9.0 % control
